# Assay results published in publication PMC3785365 (Clinical cancer research : an official journal of the …, 2011).
# Tests used:
# [1] = system: phosphorylation of S6 and 4E-BP1; assay: Western blot of mTOR signaling; format: cell-based, human; conditions: glioma cells
# [2] = molecular target: FGFR3 (Homo sapiens, UniProt P22607); assay: Biochemical kinase assay, FGFR3
# [3] = system: D54 cells; assay: Mitotic index; format: cell-based, human; conditions: D54 (p53-wt); 2 μm, 72 hours; control cells 1% to 3%
# [4] = system: U87 intracranial xenografts; assay: Intracranial U87 glioma xenograft survival model; format: in vivo; conditions: nude mice, control 26 days
# [5] = system: LN18 cells; assay: Mitotic index; format: cell-based, human; conditions: LN18 (p53-mutant/deleted); 2 μm, 72 hours; control cells 1% to 3%
# [6] = system: glioma cell lines; assay: Annexin V apoptosis assay by flow cytometry; conditions: 72 hours
# [7] = molecular target: T1, PDK1 (Homo sapiens, UniProt O15530); assay: Biochemical kinase assay, PDK1
# T1 sequence (O15530 1-556): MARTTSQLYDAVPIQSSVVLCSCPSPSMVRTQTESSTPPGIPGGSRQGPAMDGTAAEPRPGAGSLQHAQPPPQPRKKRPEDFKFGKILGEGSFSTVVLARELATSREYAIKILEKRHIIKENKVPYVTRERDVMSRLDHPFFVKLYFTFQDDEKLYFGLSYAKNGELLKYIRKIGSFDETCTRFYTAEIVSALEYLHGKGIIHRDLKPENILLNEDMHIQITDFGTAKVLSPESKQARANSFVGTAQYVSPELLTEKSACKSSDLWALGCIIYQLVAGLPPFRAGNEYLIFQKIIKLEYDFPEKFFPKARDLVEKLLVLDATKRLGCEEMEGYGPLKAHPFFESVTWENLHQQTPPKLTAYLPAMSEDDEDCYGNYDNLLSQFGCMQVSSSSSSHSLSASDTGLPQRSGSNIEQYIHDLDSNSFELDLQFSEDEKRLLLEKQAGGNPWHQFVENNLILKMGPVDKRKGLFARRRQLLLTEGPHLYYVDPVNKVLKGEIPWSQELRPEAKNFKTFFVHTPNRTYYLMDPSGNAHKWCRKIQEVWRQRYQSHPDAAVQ
# [8] = system: LN229 cells; assay: Mitotic index; format: cell-based, human; conditions: LN229 (p53-mutant/deleted); 2 μm, 72 hours; control cells 1% to 3%
# [9] = molecular target: Tek (Homo sapiens, UniProt Q02763); assay: Biochemical kinase assay, Tek
# [10] = Tolerability in treated tumor-bearing mice; format: in vivo; conditions: 20 or 40 mg/kg oral
# [11] = system: phosphorylation of Akt; assay: Inhibition of Akt phosphorylation by immunoblot in U87MG and LN18 cells; conditions: Homo sapiens, read-out: IC50 for inhibiting phosphorylation of Akt
# [12] = molecular target: c-Met (Homo sapiens, UniProt P08581); assay: Biochemical kinase assay, c-Met
# [13] = system: U251 cells; assay: Mitotic index; format: cell-based, human; conditions: U251 (p53-mutant/deleted); 2 μm, 72 hours; control cells 1% to 3%
# [14] = system: U343 cells; assay: Mitotic index; format: cell-based, human; conditions: U343 (p53-wt); 2 μm, 72 hours; control cells 1% to 3%
# [15] = system: U87 cells; assay: Mitotic index; format: cell-based, human; conditions: U87 (p53-wt); 2 μm, 72 hours; control cells 1% to 3%
# [16] = molecular target: KDR (Homo sapiens, UniProt P35968); assay: Biochemical kinase assay, KDR
# [17] = molecular target: P110α (Homo sapiens, UniProt P42336); conditions: cited from earlier work
# [18] = system: p110γ; conditions: cited from earlier work
# [19] = system: p110δ; conditions: cited from earlier work
# Tek, sequence (Q02763 23-1124, species assumed): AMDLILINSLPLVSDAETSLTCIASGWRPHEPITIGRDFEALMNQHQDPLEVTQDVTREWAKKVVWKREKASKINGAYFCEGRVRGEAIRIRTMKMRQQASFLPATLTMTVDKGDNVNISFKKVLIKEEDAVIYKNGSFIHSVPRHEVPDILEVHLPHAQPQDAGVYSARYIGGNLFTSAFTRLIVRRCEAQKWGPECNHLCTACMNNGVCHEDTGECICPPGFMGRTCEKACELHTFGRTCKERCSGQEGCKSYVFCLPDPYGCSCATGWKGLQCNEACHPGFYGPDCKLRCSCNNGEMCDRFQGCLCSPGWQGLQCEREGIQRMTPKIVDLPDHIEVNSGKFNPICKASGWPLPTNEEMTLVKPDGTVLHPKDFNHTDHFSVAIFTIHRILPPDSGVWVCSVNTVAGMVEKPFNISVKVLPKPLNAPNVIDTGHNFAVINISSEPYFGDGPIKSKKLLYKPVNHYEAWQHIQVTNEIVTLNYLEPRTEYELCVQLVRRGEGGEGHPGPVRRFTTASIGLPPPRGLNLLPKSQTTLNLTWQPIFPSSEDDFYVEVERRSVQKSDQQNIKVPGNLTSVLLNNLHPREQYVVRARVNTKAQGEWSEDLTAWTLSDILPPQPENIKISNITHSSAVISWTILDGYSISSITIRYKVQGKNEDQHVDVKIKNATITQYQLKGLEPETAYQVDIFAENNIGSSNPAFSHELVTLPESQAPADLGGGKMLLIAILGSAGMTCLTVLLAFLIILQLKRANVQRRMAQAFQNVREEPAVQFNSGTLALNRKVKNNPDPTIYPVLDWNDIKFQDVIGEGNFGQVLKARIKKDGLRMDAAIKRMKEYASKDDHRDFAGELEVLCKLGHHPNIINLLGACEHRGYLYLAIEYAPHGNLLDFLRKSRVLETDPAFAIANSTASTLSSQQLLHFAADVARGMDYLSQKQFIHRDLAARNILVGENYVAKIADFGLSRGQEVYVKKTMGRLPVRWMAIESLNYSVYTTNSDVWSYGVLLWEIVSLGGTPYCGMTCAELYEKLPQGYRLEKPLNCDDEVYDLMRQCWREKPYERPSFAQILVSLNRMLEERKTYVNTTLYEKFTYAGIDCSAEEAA
# KDR, sequence (P35968 20-1356, species assumed): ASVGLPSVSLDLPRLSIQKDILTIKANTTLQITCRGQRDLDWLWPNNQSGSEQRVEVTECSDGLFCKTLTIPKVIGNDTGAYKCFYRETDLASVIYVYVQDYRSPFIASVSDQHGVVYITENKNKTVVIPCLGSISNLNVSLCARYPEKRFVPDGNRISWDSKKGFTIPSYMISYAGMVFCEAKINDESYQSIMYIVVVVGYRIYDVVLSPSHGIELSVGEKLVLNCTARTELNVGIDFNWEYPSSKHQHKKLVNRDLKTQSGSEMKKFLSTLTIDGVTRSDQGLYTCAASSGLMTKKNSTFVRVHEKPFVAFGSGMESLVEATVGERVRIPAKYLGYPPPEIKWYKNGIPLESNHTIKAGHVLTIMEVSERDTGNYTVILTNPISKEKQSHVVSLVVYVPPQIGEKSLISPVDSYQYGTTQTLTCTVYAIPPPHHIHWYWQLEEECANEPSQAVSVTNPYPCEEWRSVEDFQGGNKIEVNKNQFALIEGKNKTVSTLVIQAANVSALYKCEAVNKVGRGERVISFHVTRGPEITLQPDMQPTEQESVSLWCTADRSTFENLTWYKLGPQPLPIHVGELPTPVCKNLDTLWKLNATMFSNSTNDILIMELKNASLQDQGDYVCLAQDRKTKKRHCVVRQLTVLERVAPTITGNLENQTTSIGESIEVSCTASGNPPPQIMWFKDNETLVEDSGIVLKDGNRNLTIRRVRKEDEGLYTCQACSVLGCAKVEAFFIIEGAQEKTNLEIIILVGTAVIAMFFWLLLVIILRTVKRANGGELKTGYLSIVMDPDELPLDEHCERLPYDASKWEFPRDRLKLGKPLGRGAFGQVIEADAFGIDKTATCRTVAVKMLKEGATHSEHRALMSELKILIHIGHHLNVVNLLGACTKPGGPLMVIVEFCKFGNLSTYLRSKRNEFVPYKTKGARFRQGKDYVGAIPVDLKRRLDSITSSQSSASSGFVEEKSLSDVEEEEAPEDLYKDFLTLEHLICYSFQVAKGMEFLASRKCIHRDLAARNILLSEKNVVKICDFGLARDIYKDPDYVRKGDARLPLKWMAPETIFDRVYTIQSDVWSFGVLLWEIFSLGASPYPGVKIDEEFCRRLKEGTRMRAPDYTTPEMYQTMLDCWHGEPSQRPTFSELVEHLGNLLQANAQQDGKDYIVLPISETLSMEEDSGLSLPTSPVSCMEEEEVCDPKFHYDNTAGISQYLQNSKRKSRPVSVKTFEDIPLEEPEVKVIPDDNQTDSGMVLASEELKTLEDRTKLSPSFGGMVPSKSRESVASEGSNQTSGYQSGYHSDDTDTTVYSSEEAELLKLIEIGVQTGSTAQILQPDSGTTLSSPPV
# c-Met, sequence (P08581 25-1390): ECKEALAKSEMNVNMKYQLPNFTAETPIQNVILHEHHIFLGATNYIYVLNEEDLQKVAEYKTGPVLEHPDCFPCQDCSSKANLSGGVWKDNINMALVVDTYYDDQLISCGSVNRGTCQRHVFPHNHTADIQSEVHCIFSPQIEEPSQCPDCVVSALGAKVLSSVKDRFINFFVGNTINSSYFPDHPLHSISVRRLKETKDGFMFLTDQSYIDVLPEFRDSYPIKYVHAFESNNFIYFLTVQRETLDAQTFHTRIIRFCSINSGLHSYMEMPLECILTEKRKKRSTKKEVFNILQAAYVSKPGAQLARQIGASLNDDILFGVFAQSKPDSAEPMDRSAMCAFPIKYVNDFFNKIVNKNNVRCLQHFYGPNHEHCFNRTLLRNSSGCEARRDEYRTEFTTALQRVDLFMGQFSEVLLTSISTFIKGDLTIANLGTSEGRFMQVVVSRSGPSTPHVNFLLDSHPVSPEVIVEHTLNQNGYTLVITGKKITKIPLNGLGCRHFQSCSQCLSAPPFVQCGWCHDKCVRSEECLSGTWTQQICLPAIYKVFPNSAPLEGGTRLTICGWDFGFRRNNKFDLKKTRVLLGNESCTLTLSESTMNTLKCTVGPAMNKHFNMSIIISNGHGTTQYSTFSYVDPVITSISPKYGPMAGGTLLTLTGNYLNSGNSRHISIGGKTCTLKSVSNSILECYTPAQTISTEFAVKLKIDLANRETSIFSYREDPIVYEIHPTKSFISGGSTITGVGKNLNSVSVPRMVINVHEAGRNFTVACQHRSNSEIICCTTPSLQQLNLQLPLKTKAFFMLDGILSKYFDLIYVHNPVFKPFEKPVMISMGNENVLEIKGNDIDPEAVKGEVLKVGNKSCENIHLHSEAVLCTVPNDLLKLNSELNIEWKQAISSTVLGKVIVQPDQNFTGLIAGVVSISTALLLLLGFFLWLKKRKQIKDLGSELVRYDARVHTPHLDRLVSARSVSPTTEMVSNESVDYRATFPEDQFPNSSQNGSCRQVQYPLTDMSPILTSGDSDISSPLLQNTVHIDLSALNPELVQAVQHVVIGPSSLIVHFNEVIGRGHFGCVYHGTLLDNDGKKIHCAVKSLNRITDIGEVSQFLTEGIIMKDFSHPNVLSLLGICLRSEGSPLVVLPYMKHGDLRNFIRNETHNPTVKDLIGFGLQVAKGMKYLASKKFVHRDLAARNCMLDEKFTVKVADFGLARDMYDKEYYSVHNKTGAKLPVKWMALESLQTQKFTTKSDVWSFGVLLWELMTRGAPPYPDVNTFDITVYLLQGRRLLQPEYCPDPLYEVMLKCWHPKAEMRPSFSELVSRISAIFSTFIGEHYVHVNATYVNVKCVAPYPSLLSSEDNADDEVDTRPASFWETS
# FGFR3, sequence (P22607 23-806, species assumed): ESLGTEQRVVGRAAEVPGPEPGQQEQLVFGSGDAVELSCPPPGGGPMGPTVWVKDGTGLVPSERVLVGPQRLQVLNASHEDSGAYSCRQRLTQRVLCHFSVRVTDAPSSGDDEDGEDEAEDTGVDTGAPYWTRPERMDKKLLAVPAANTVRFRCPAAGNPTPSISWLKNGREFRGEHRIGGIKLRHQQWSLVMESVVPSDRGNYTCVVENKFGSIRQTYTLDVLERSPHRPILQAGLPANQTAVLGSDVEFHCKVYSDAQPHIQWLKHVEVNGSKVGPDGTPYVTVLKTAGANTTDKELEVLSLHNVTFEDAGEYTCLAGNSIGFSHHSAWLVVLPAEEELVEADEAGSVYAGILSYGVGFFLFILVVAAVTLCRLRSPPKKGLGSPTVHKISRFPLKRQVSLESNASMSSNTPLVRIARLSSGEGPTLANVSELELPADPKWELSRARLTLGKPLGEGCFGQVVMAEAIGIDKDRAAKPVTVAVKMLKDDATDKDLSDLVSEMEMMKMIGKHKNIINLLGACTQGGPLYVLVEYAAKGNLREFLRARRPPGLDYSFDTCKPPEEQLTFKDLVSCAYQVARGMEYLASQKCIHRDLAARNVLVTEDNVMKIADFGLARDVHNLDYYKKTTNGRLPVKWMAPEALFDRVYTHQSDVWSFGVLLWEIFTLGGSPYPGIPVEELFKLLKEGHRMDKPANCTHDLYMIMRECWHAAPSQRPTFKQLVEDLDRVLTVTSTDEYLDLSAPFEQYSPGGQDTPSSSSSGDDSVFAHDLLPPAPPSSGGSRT
structure (smiles),measurement,setting,value
"Cn1c(=O)n(-c2ccc(C(C)(C)C#N)cc2)c2c3cc(-c4cnc5ccccc5c4)ccc3ncc21 [NVP-BEZ235, reference compound]",effect on phosphorylation of S6 and 4E-BP1,[1],nearly complete dephosphorylation of both S6 and 4E-BP1
Nc1cc(C(F)(F)F)c(-c2cc(N3CCOCC3)nc(N3CCOCC3)n2)cn1 [NVP-BKM120],IC50,[2],> 10 µM
same,cells in mitosis (phospho-H3 positive) after treatment,[3],2.8%
same,median survival time,[4]; 20 mg/kg oral,38 days
same,median survival time,[4]; 40 mg/kg oral,48 days
same,cells in mitosis (phospho-H3 positive) after treatment,[5],7.3%
same,change of the percentage of apoptosis (Annexin V),[6]; p53-mutant/deleted cell lines,3.98%
same,change of the percentage of apoptosis (Annexin V),[6]; p53-wt cell lines,14.52%
same,IC50,[7],> 10 µM
same,cells in mitosis (phospho-H3 positive) after treatment,[8],7.9%
same,IC50,[9],> 10 µM
same,effect on phosphorylation of S6 and 4E-BP1,[1],minor dephosphorylation only of the S6 protein
same,"adverse effects with respect to body weight, water intake, and general activity",[10],no obvious signs of adverse effects
same,IC50,[11],0.5 to 1 µM
same,IC50,[12],> 10 µM
same,cells in mitosis (phospho-H3 positive) after treatment,[13],12.4%
same,cells in mitosis (phospho-H3 positive) after treatment,[14],3%
same,cells in mitosis (phospho-H3 positive) after treatment,[15],2.6%
same,IC50,[16],> 10 µM
C=CCN(/C=C1/C(=O)O[C@H](COC)[C@@]2(C)C1=C(O)C(=O)C1=C2[C@H](OC(C)=O)C[C@]2(C)C(=O)CC[C@@H]12)CC=C [PX-866],IC50,[17],low nanomolar range
same,IC50,[18],low nanomolar range
same,IC50,[19],low nanomolar range
